Measured values as given in publication PMC8861431, “Tissue Pharmacokinetic Properties and Bystander Potential of Hypoxia-Activated Prodrug CP-506 by Agent-Based Modelling” (Frontiers in Pharmacology, 2022).
Where “and” joins values, the source holds several entries; their conditions need not be identical. Equal values may be shown once.

Experiments:
[1] = test system: PORko-G and POR-R spheroids / spheroid co-cultures; assay: Spheroid clonogenic survival assay (with spheroid ABM fit); format: cell-based, human; details: for k d S: kill probability rate constant in spheroid cultures: fitted by spheroid ABM to clonogenic survival under anoxia, set to zero for the prodrug, same kd assumed for metabolites
Procedure: Spheroid cultures were established by seeding 3 x 10^3 cells with 100 µl medium into ultra-low attachment, round bottom 96-well plates (Corning Inc, Corning, NY). Plates were briefly centrifuged (200 g, 5 min) to facilitate cell aggregation and grown in a standard incubator (37°C, 21% O2, 5% CO2) for 4 days before experiments. The culture medium was then aspirated, and the established spheroids taken into a H2/Pd-catalyst anaerobic chamber. Spheroids were washed three times with anoxia pre-equilibrated medium and left to settle for 1 h in a humidified 37°C incubator. Spheroids were removed from the anaerobic chamber after a 4 h drug exposure and washed three times with fresh culture medium. The growth of representative spheroids was monitored for 10 days using a published method of image analysis for volume determination ([Mao et al., 2018]). The remainder were enzymatically dissociated and plated at serial dilutions in 6-well plates containing 2 µM puromycin or 1 mg/ml geneticin for positive selection of POR-R and PORko-G cells, respectively. Colonies were visualized after 10 days of drug-free proliferation by staining with methylene blue (2 g/L in 50% aqueous ethanol) for 30 min. The number of colonies with at least 50 cells was manually counted to determine the plating efficiency. The surviving fraction was determined as the ratio of the plating efficiency of treated cells to that of the controls.
The spheroid ABM is described in further detail elsewhere ([Hong et al., 2018b]; [Mao et al., 2018]). The model employs two 3D grids and two solvers, a coarse grid represents the culture medium and is embedded with a much finer grid that represents the spheroid in a small cubic region at the bottom of the well. The spheroid grows in a specified volume and depth of unstirred medium containing dissolved oxygen. The geometry of the model is lattice-based, in which cells occupy cubic sites on a regular 3D lattice and grow in volume at a rate dependent on the local oxygen concentration. Autonomous cell mobility and cell-cell forces are not simulated. Cell motion occurs only as a result of cell division. Cells divide when the volume reaches a pre-set value (Vdiv) and the resultant daughter cell occupies an adjacent empty lattice site. […] The oxygen concentration at the air-medium boundary is defined by the gas phase of the culture environment. […] When oxygen concentrations fall below a critical level (<0.15 µM), cells are tagged to die and cytolysis occurs after a further 24 h leading to the central necrosis observed in in vitro spheroids. Spheroid ABM simulations were performed on a desktop Windows PC (Intel core I7 processor) from a Qt (Qt Company, https://www.qt.io/) graphical user interface passing parameters to a DLL built with Fortran95. The solution of the coarser grid provides the boundary conditions for the solution of the intracellular and extracellular concentrations within the spheroid lattice. Oxygen and drug are transported by diffusion from the boundary into the spheroid interior through the intercellular space in parallel with their uptake into cells. The model allows specification of two mass transfer constants to characterise the uptake (Kin) and efflux (Kout) rates for each compound. Prodrug metabolism is restricted to the intracellular compartment and dependent on the local oxygen concentration. […]

[2] = Diffusion across bare collagen-coated support membrane (without cells); format: in vitro ADME; details: for D M: diffusion coefficient in medium: Table 1
Procedure: The extravascular transport properties of CP-506 and its formed metabolites were investigated using a custom-designed diffusion apparatus, as described previously ([Hicks et al., 2006]). Briefly, MCL cultures were established by seeding 1 x 10^6 POR-R cells onto collagen-coated Millicell-CM inserts for 3 days. Established MCLs were placed at the interface of the two media-filled compartments of diffusion chambers. Diffusion chambers were placed in a 37°C water bath and gassed with a supraoxic (95% O2, 5% CO2) or anoxic (5% CO2, bal N2) mixture for at least 1 h prior to drug addition. Flux was initiated by the addition of internal standard ([^14C]-urea) and 20 µM CP-506 to the donor compartment. Samples (100 µl) were collected from both the donor and receiver compartments for up to 5 h thereafter. At each time point, a 25 µl aliquot was mixed with emulsifier-safe water-accepting scintillant and assayed for radioactivity using a Perkin Elmer Tricard 2910 TR liquid scintillation analyser. The remaining sample was treated with two volumes of ice-cold acetonitrile (containing 2 µM of the relevant deuterated internal standards) and stored at −80°C until LC-MS/MS analysis. Similar experiments were performed using collagen-coated inserts without MCLs to deduce the chemical stability and diffusion coefficient of CP-506 across the bare support membrane.
Drug transport in MCLs was modelled as a one-dimensional diffusion with reaction across four consecutive compartments (stirred donor, POR-R MCL, collagen-coated teflon support membrane and stirred receiver) using a custom designed MatLab routine ([Foehrenbacher et al., 2013a]). Model parameters were derived by fitting Eq. 1 and Eq. 2 to the measured concentration-time profile of internal standard [^14C]-urea, CP-506, CP-506H and CP-506M in MCL flux studies. The flux of CP-506 and its metabolites across POR-R MCLs was described using Fick’s second law with a reaction term: ∂CeN/∂t=DN∂^2CeN/∂x^2−klossNCeN− φ( kinNCeN− koutNCiN) (1) ∂CiN/∂t= kmet0(N−1)Ci(N−1)+φ(kinNCeN− koutNCiN)−kmet0NCiN (2) where C is the concentration of the diffusing substance at position x and time t in the extracellular (e) or intracellular (i) compartment, D is the diffusion coefficient through either a bare support membrane (without cells) (D suo ) or extracellular space of a POR-R MCL (D MCL ), k loss is the rate constant for first-order loss (instability) in culture medium, k in and k out are the rate constants for transmembrane transport and k met0 is the rate constant for intracellular metabolism and instability for each compound (N). For metabolites, N-1 represents the previous compound from which the current compound is produced by metabolism. Experimental data was fitted iteratively to derive a tissue diffusion coefficient (DMCL) and metabolic scaling factor (φ i ) to restrain parameter estimates from the cellular PK model (Kin, Kout, Kmet0). The diffusion coefficient for CP-506 across the bare support membrane (Dsup) was determined by solving Eq. 1 with a reaction term only for chemical instability. MCL thicknesses were estimated by fitting the measured [^14C]-urea concentrations to those predicted by Eq. 1 and Eq. 2 without instability or metabolism by using the known diffusion coefficient (DMCL) for [^14C]-urea in HCT-116 MCLs ([Wilson et al., 2004]). The diffusion coefficient (DMCL) for CP-506 in POR-R MCLs was then fitted from the measured concentrations in the donor and receiver compartments of supraoxic experiments by assuming one-directional diffusion in the extracellular space. The metabolic scaling factor (φ i ) was then fitted from the measured concentrations in the donor and receiver compartment of anoxic experiments by fixing parameter estimates to the diffusion coefficient (DMCL) from supraoxic experiments.

[3] = assumed equivalent to CP-506 for the active metabolites

Compound | Differential in anoxic sensitivity between PORko-G and POR-R spheroids ([1]; clonogenic endpoint, 4 h exposure, anoxia) | k d S: kill probability rate constant in spheroid cultures [1] | D M: diffusion coefficient in medium ([2]; Dsup fitted for bare support membranes under supraoxic conditions) | Dsup: diffusion coefficient across bare support membranes ([2]; anoxic (5% CO2, bal N2)) | Dsup: diffusion coefficient across bare support membranes ([2]; supraoxic (95% O2, 5% CO2)) | D M: diffusion coefficient in medium [2, 3]
CCN1CCN(C(=O)c2cc(N(CCBr)CCOS(C)(=O)=O)c(S(C)(=O)=O)cc2[N+](=O)[O-])CC1 [CP-506, 2-[(2-bromoethyl)-5-[(4-ethyl-1-piperazinyl)carbonyl]-2-(methylsulfonyl)-4-nitroanilino]ethyl methanesulfonate] | 22 fold and 20 fold | 0 | 1.32 × 10^−6 ± 0.19 × 10^−6 cm^2s^−1 | 0.717 ± 0.01 x 10^−6 cm^2 s^−1 and 0.717 ± 0.01 (3) x 10^−6 cm^2 s^−1 | 1.32 ± 0.19 x 10^−6 cm^2 s^−1 and 1.32 ± 0.19 (2) ^b x 10^−6 cm^2 s^−1 | –
CCN1CCN(C(=O)c2cc(N(CCBr)CCOS(C)(=O)=O)c(S(C)(=O)=O)cc2NO)CC1 [CP-506H, 2-((2-bromoethyl)(5-(4-ethylpiperazine-1-carbonyl)-4-(hydroxyamino)-2-(methylsulfonyl)phenyl)amino)ethyl methanesulfonate] | – | 0.0256 | – | – | – | 1.32 × 10^−6 ± 0.19 × 10^−6 cm^2s^−1
CCN1CCN(C(=O)c2cc(N(CCBr)CCOS(C)(=O)=O)c(S(C)(=O)=O)cc2N)CC1 [CP-506M, 2-((4-amino-5-(4-ethylpiperazine-1-carbonyl)-2-(methylsulfonyl)phenyl)(2-bromoethyl)amino)ethyl methanesulfonate] | – | 0.0256 | – | – | – | 1.32 × 10^−6 ± 0.19 × 10^−6 cm^2s^−1
CCN1CCN(C(=O)c2cc(N(CCCl)CCCl)c(S(C)(=O)=O)cc2N)CC1 [CP-506M-Cl2, (2-Amino-5-(bis(2-chloroethyl)amino)-4-(methylsulfonyl)phenyl)(4-ethylpiperazin-1-yl)methanone] | – | 0.0256 | – | – | – | 1.32 × 10^−6 ± 0.19 × 10^−6 cm^2s^−1
